Test results from US20250339374A1, “BONDED MICROPARTICULATES PREPARATION AND APPLICATIONS THEREOF” (Venkor Corporation, priority 2022, published 2025).
Where two headings read alike, the source gives them in different places.

Assays:
[1] = Solubility in water of solid particulate material (descriptive); type: physicochemical
Procedure: In some embodiments, the solid particulate starting material is hydrophilic or hydrophobic or lipophilic in character. Solubility of drugs is measured by the amount of solvent needed to dissolve one part of the drug at a specific temperature. For example, a drug that is very soluble needs less than one part of solvent to dissolve one part of the drug. A drug that is considered freely soluble needs 1 to 10 parts of solvent, one that is soluble needs 10 to 30 parts of solvent, one that sparingly soluble need 30 to 100 parts of solvent, one that is slightly soluble needs 100-1,000 parts and one that is practically insoluble or insoluble needs more than 10,000 parts, per part of solute.

[2] = in water; description of the solid particulate material in the composition table; cited from earlier work
[3] = Tapped density, USP <616>; type: physicochemical; conditions: solid particulate material, description in composition table; equals tapped density of Active
Procedure: In addition to screen analysis, the tap density and the bulk density of the bonded microparticulates and solid particulate material were determined.

[4] = Sieve analysis (particle size) of solid particulate material and BMPX, USP <786>; type: physicochemical; conditions: solid particulate material; for Particle size: description in composition table
Description: For example, to prepare tablets, certain excipients such as disintegrants, lubricants, glidants etc. may be added to the bonded microparticulates to further facilitate forming the tablet.

[5] = description in composition table

Compound	Solubility [2]	Density [3]	Particle size [4]	other results
Sugar powder	–	–	–	Solubility ([1]; in water): Solubility- soluble in water
COc1ccccc1OCC(O)CO (centres unmarked) [Guaifenesin]	Solubility- soluble in water	–	–	–
OC[C@@H](O)[C@H](O)[C@@H](O)CO [Xylitol-300]	–	Density -0.83 (High Density)	Particle size- 149 microns	Solubility [1, 5]: Solubility- soluble in water
Zinc Gluconate	–	Density- 0.6(Medium density)	Particle size- 177 microns	–
CC(C)Cc1ccc(C(C)C(=O)O)cc1 (centres unmarked) [Ibuprofen]	Solubility- in soluble in water	–	–	–
CCOC(=O)C1=C(COCCN)NC(C)=C(C(=O)OC)C1c1ccccc1Cl (centres unmarked) [Amlodipine Besylate]	Solubility- insoluble in water	–	–	–
OC[C@@H](O)[C@H](O)[C@@H](O)CO [Xylitol-90]	–	–	–	Solubility ([1]; in water): Solubility- soluble in water
O=C(O)c1cccnc1 [Niacin]	Solubility- soluble in water	–	–	–
O=C([O-])O.[Na+] [Sodium Bicarbonate, reference compound]	–	Density -1.19 (High Density)-	74 microns	retain on 200# ([4]; 200 mesh): 70.8%
O=C([O-])[O-].[Ca+2] [Calcium Carbonate]	–	Density -1.2(High Density)	–	retain on 60mesh ([4]; 60 mesh): ≥ 90% retain on 60mesh
OC[C@@H](O)[C@@H](O)[C@H](O)[C@H](O)CO [Mannitol]	–	–	–	Solubility ([1]; in water): Solubility- insoluble in water
Fructo-Oligosaccharide	–	Density -0.75 (High Density)	Particle size- 149 microns	Solubility [1, 5]: Solubility- soluble in water
